Experiments:
HLA-B*0702 = target: T1, HLA-B*0702 (Homo sapiens, UniProt P01889); experiment: Measurement of peptide relative affinity to HLA-B*0702 (T2-B7 cells, ME-1 mAb staining); format: binding; conditions: for RA (Relative Affinity to HLA-B*0702): concentration inducing 20% of HLA-B*0702 expression relative to reference peptide CMV265-274, T2-B7 cells, 16 hours, 37° C.
T1 construct: expressed in transfected cells; host or cells: human T2-B7 cells (T2 transfected with HLA-B*0702)
Description: Measurement of Peptide Relative Affinity to HLA-B*0702.
The protocol used has been described previously (Rohrlich et al., 2003). Briefly, T2-B7 cells were incubated at 37° C. for 16 hours with peptides concentrations ranging from 100 μM to 0.1 μM, and then stained with ME-1 monoclonal antibody (mAb) to quantify the surface expression of HLA-B*0702. For each peptide concentration, the HLA-B*0702 specific staining was calculated as the percentage of staining obtained with 100 μM of the reference peptide CMV265-274 (R10V; RPHERNGFTV, SEQ ID NO: 172). The relative affinity (RA) was determined as: RA=(Concentration of each peptide that induces 20% of HLA-B*0702-expression/Concentration of the reference peptide that induces 20% of HLA-B*0702 expression).

[1] = system: T2-B7 targets loaded with peptide; experiment: CTL induction in vivo in HLA-B*0702 transgenic mice, Cr51 cytotoxic assay; conditions: for Immunogenicity: X mice developed a specific response for a total of Y mice vaccinated, 100 μg peptide subcutaneously in IFA; for Native peptide cross recognition, MAGE-A A / Native peptide cross recognition, MAGE-A I / Native peptide cross recognition, MAGE-A V: X/Y mice; for Native peptide cross recognition, MAGE-A A: CTL tested against T2-B7 targets loaded with native peptide MAGE-A A; for Native peptide cross recognition, MAGE-A I: CTL tested against T2-B7 targets loaded with native peptide MAGE-A I; for Native peptide cross recognition, MAGE-A V: CTL tested against T2-B7 targets loaded with native peptide MAGE-A V; for Cross recognition of the native peptides by induced CTLs (in words): target cells loaded with native cryptic peptides; for Immunogenicity (in words): vaccinated HLA-B*0702 transgenic mice
Description: The HLA-B7 H-2 class-I knockout mice were previously described (Rohrlich et al., 2003).
CTL Induction In Vivo in HLA-B*0702 Transgenic Mice.
Mice were injected subcutaneously with 100 μg of peptide emulsified in Incomplete Freund's Adjuvant (IFA) in the presence of 150 μg of the I-A^b restricted HBVcore128 T helper epitope (TPPAYRPPNAPIL, SEQ ID NO: 173). After 11 days, 5×10^7 spleen cells were stimulated in vitro with peptide (10 μM). On day 6 of culture, the bulk responder populations were tested for specific cytotoxicity.
Targets were labelled with 100 μCi of Cr^51 for 60 min, plated in 96-well V-bottomed plates (3×10^3 cell/well in 100 μL of RPMI 1640 medium) and, when necessary, pulsed with peptides (1 μM) at 37° C. for 2 hours. Effectors were then added in the wells and incubated at 37° C. for 4 hours. Percentage of specific lysis was determined as: % Lysis=(Experimental Release−Spontaneous Release)/(Maximal Release−Spontaneous Release)×100.

| Sequence | Binding to HLA-B*0702 molecules (in words) (HLA-B*0702) | RA (Relative Affinity to HLA-B*0702) (HLA-B*0702) | Immunogenicity [1] | Native peptide cross recognition, MAGE-A A [1] | Native peptide cross recognition, MAGE-A I [1] | Native peptide cross recognition, MAGE-A V [1] | Cross recognition of the native peptides by induced CTLs (in words) [1] | Immunogenicity (in words) [1] |
| --- | --- | --- | --- | --- | --- | --- | --- | --- |
| APRALVETL (MAGE-A A1L9 peptide) | able to bind to MHC | + ((+) 5 < RA < 10) | 6/11 | MAGE-A A (1/8) | MAGE-A I (0/3) | MAGE-A V (0/3) | not able to cross-recognize the native peptides | immunogenic |
| GPRALAETS (HLA-B7 restricted native peptide) [MAGE-A A] | – | − ((−) means RA > 10) | – | – | – | – | – | – |
| GPRALIETS (HLA-B7 restricted native peptide) [MAGE-A I] | – | − ((−) means RA > 10) | – | – | – | – | – | – |
| GPRALVETL (HLA-B7 restricted optimized peptide) [MAGE-A L9] | – | – | 18/18 | MAGE-A A (3/8) | MAGE-A I (3/5) | MAGE-A V (4/5) | able to recognize a target cell loaded with each of the native cryptic peptides | strongly immunogenic |
| GPRALVETS (HLA-B7 restricted native peptide) [MAGE-A V] | – | − ((−) means RA > 10) | – | – | – | – | – | – |

Source: US10024868B2, “Identification, optimization and use of shared HLA-B*0702 epitopes for immunotherapy” (Vaxon Biotech, priority 2009, dated 2018)
